# In paper PMC4336141, “Repurposing Auranofin as a Lead Candidate for Treatment of Lymphatic Filariasis and Onchocerciasis” (PLoS Neglected Tropical Diseases, 2015):
# pIC50: −log10 of the molar value. Where “and” joins values, the source holds several entries; their conditions need not be identical. Equal entries are not always repeated.
# Key:
# adult B. malayi = experiment: Adult Brugia malayi worm motility assay (Worminator) in vitro; type: cell-based; settings: for pIC50: B. malayi, Adult, Day 3, motility
# Procedure: (§1) Adult female and male Brugia (B. malayi and B. pahangi) were shipped from TRS Labs Inc., Athens, GA and assayed using methods described by Marcellino et al. (2012). Individual females were placed in each well of a 24-well plate with media (RPMI-1640 with 25 mM HEPES, 2.0 g/L NaHCO3, 5% heat inactivated FBS, and 1X Antibiotic/Antimycotic solution). Excess media was removed from plates using a Biomek FxP, leaving 500 μL of media per well. Initial screening of a library of FDA-approved compounds, compiled by the Small Molecule Discovery Center at the University of California San Francisco, was conducted at 10 μM per compound, and 1% DMSO was used as a negative control. All drugs including auranofin (Enzo Life Sciences, Farmingdale, NY) were dissolved in DMSO (Sigma-Aldrich, St. Louis, MO) and 10 mM stock solutions were stored at -20°C. Four worms were used as replicates for each concentration and worm plates were kept in a 37°C, 5% CO2 incubator for four days.
# (§2) To determine the effect of a compound on worm motility, individual worm movements were counted as the number of pixels displaced per second by each worm in each well using the Worminator. Each plate of worms was video recorded for approximately 60 seconds, and mean movement units (MMUs) were determined for individual worms. Percent inhibition of motility was calculated by dividing the MMUs of the treated worms by the control average MMUs, subtracting the value from 1.0, flooring the values to zero and multiplying by 100%. Videos were recorded for 4 days, including the first day of the assay (Day 0). IC50 determinations were conducted at 10 μM, 3 μM, 1 μM, 0.3 μM, 0.1 μM and 0.03 μM, with 1% DMSO used as a control. IC50 assays were repeated at the same concentrations and at six point, three-fold dilutions from 1 μM to 0.003 μM or 3 μM to […] to ensure that activity was consistent between assays. Prism 4.0 was used to calculate IC50 values using a non-linear regression curve fit. The means of all IC50s with R^2 values greater than or equal to 0.7 are reported.
# adult B. pahangi = experiment: Adult Brugia pahangi worm motility assay (Worminator) in vitro; type: cell-based; settings: for pIC50: B. pahangi, Adult, Day 3, motility
# Procedure: as §1, §2
# adult female O. ochengi = experiment: Adult female Onchocerca ochengi viability, MTT/formazan assay in vitro; type: cell-based; settings: Day 7, MTT/formazan
# Procedure: Cows that had grazed in northern Cameroon where O. ochengi is highly endemic were brought to abattoirs located in Douala, Cameroon. Subcutaneous nodules containing adult O. ochengi worms were identified on the umbilical skin of infected cows. Adult worm masses containing one viable, adult female and zero to several adult males were carefully recovered by dissection of the nodule with a sterile razor blade. The masses were then incubated in 4 mL of complete culture medium (CCM), which was comprised of RPMI-1640 (Sigma-Aldrich), 5% newborn calf serum, 200 units/mL penicillin, 200 μg/mL streptomycin and 2.5 μg/mL amphotericin B (Sigma-Aldrich), in standard 12-well culture plates. […] Adult female worm viability was assessed on day 7 by the standard MTT/formazan assay in which each nodular mass was placed in a well of a 48-well microtiter plate containing 500 μL of 0.5 mg/mL MTT (Sigma-Aldrich) in incomplete culture medium, and then incubated in the dark at 37°C for 30 minutes. Adult female worm viability was evaluated visually by the extent to which the female worm mass was stained with MTT. Mean percent inhibition of formazan formation was calculated relative to the negative control worm masses after 7 days in culture. […]
# adult male O. ochengi = experiment: Adult male Onchocerca ochengi motility scoring in vitro; type: cell-based; settings: Day 5, motility
# [1] = Plasma gold levels (elemental gold analysis) in Brugia infected gerbils; type: in vivo, Mongolian gerbils (Meriones unguiculatus)
# Procedure: Animal studies were performed under IACUC approval #AN085723–02 to test the efficacy of auranofin in vivo. Male Mongolian gerbils (Meriones unguiculatus, Charles River Laboratories International, Inc., Wilmington, MA) were injected intraperitoneally (IP) with 300 B. pahangi L3 (Filariatech, Inc., Athens, GA) and treated 3 months post-infection. Auranofin was dissolved in 100% ethanol at 4 mg/mL and mixed 1:1 with PBS. Vehicle doses consisted of the same mixture of ethanol and PBS but without auranofin. Doses (up to 200 μl) were given to gerbils orally at 5 mg/kg body weight, BID weekdays and SID weekends for a total of 48 doses over 4 weeks.
# Two studies (Study 1 and Study 2) were conducted using the same protocols and the same dosing schedule except that in Study 1, two gerbils from the auranofin treatment group and two gerbils from the vehicle group were treated for 14 days and were necropsied 2 hours after their last dose (interim necropsy) to determine plasma gold levels (from auranofin). The remaining gerbils in Study 1 were treated for 28 days and were necropsied 11, 14, or 16 days after the end of dosing. In Study 2, all gerbils were treated for 28 days and were necropsied 16 days after the end of dosing. For both of these in vivo studies, worms were collected from the gerbil’s peritoneal cavity, counted, sexed and examined under a dissecting microscope. For each study a two-tailed Student’s T-test assuming equal variance was conducted using Microsoft Excel to determine the statistical significance of the difference in mean worm retrieval between the auranofin treated and vehicle treated groups. Gerbil blood was collected by cardiac puncture and plasma was sent to NMS Labs, Willow Grove, PA to determine plasma gold levels (elemental gold analysis) by graphite furnace atomic absorption spectroscopy.
structure (smiles),measurement,setting,value
"CC[PH](CC)(CC)[Au][S][C@@H]1O[C@H](COC(C)=O)[C@@H](OC(C)=O)[C@H](OC(C)=O)[C@H]1OC(C)=O [auranofin, 2,3,4,6-tetra-O-acetyl-1-thio-beta-D-glucopyranosato-S (triethylphosphine) gold]",pIC50,adult B. malayi; Female,5.96
same,pIC50,adult B. malayi; Male,6.52
same,inhibition of motility,"adult B. malayi; female B. malayi, 3 μM, within 18 hours of incubation",97%
same,pIC50,adult B. pahangi; Female,6.30
same,pIC50,adult B. pahangi; Male,7.00
same,inhibition of motility,"adult B. pahangi; female B. pahangi, 3 μM, within 18 hours of incubation",97%
same,pIC50,adult female O. ochengi,6.52
same,pIC50,adult male O. ochengi,6.40
same,mean plasma gold level,"[1]; Study 1, 16 days after the last dose",701 nM
same,mean plasma gold level,"[1]; Study 2, 16 days after the last dose",609 nM
same,Plasma gold levels,"[1]; Study #1, 2 hours after last dose, interim necropsy after 14 days of treatment, 5 mg/kg oral, individual gerbils, 5 mg/kg",1700 µg/L and 1000 µg/L
same,Plasma gold levels,"[1]; Study #1, 11 days after last dose, 28 days of treatment",270 µg/L
same,Plasma gold levels,"[1]; Study #1, 14 days after last dose, 28 days of treatment",340 µg/L
same,Plasma gold levels,"[1]; Study #1, 16 days after last dose, individual gerbils, values less than 100 μg/L given as zero",170 µg/L and 190 µg/L and 160 µg/L
same,Concentration of gold,"[1]; Study #1, plasma, 2 hours after last dose, interim necropsy after 14 days of treatment, individual gerbils",5080 nM and 8630 nM and 8631 nM and 5077 nM
same,Concentration of gold,"[1]; Study #1, plasma, 11 days after last dose",1371 nM
same,Concentration of gold,"[1]; Study #1, plasma, 14 days after last dose",1726 nM
same,Concentration of gold,"[1]; Study #1, plasma, 16 days after last dose, individual gerbils, values less than 508 nM given as zero",863 nM and 965 nM and 812 nM
same,Plasma gold levels,"[1]; Study #2, 16 days after last dose, individual gerbils, values less than 100 μg/L given as zero",130 µg/L and 190 µg/L and 160 µg/L
same,Concentration of gold,"[1]; Study #2, plasma, 16 days after last dose, individual gerbils, values less than 508 nM given as zero",660 nM and 965 nM and 812 nM
same,gold levels in blood,[1]; approximately 2 weeks after the last dose,0.66 µM
